Assay results taken from patent US20080131498A1, “PHARMACEUTICAL COMPOSITION, A METHOD OF PREPARING IT AND A METHOD OF TREATMENT BY USE THEREOF” (BUSULIPO AB, priority 1998, published 2008).
“And” between values parts separate entries of the source, which are not always exact repeats. Equal values may be shown once. “Also recorded” adds a separate entry of the source. Read-outs that look alike come from different tables or passages of the source.

Columns and labels:
[1] = test system: CFU-GM from normal CD34+ hematopoietic progenitor cells; assay: Clonogenic assay of CD34+ cells, CFU-GM (Example 11); assay type: cell-based, human; settings: for effect alone on colony formation of CFU-GM or erythroid colonies / effect on busulphan-induced inhibition of colony formation of CFU-GM or erythroid colonies: CD34+ cells; for effect on busulphan-induced inhibition of colony formation of CFU-GM or erythroid colonies: preincubation then busulphan 4.5 or 10 μg/ml for 4 hours
Method: (§1) Ten healthy volunteers were recruited after a medical interview. The study followed the guidelines of the local authorities and was approved by the local ethical committee. […] CD34+ cells were separated on a MACS system by positive selection using CD34+ Separation Kit according to the manufacturer's instructions. Cells were incubated in RPMI-1640 medium supplemented with 10% heat inactivated fetal bovine serum at 37° C. in a humidified 5% CO2 atmosphere. Cells used for pharmacodynamic study were incubated in busulphan of final concentrations of 1, 2.5, 5, 10, 20, 40 or 60 μg/ml for 2, 4 or 8 hours. Cells used for the GSH modulation part were treated with N-acetyl-L-cysteine (NAC) (1 mM) or L-buthionine-[S,R]-sulfoximine (BSO) (50 μM) for 16 to 18 hours, followed by busulphan in final concentrations of 4.5 or 10 μg/ml for 4 hours. After incubation, cells were washed and plated for clonogenic assay.
(§2) CD34+ cells were treated with NAC, BSO, DMSO or busulphan alone or in combinations, washed and 2000 cells were plated in 1.1 ml of MethoCult™ GF H4434 in 35 mm Petri dishes in triplicates. Colonies were scored on day 14 using an inverted microscope. Murine bone marrow was harvested on day 1, 3, 6, 9 or 12 after the last dose of the treatment. Control group and each treatment group consisted of a minimum of three animals at each time point. Mice were sacrificed under general anaesthesia. Both femurs were removed and bone marrow was flushed out under sterile conditions. Cells were counted in Türk solution and nucleated cells (0.5×10^5) were plated in 1.1 ml of MethoCult™ GF M3534 in 35 mm Petri dishes in triplicates. The plates were placed in incubator (37° C., 5% CO2 and 100% humidity). CFU-GM, equal to or more than 50 cells, were counted on the day 7 using an inverted microscope.

CFU-GM = assay: Busulphan-induced myelosuppression in mice with GSH modulators, CFU-GM assay; assay type: in vivo, Balb/c mice; settings: for effect of combination on the myelosuppressive effect of busulphan: NAC 1.38 mmol/kg orally or BSO 0.93 mmol/kg ip before busulphan
Method: Balb/c mice were purchased from B&K Universal Limited, Sweden. Female mice were 6 to 12 weeks old with a weight ranging from 20 to 24 g. Local animal ethical committee approved animals housing conditions and experimental design. Animals were fed with standard pelleted food and water ad libitum. […] Treatment consisted of N-acetyl-L-cysteine (1.38±0.07 mmol/kg) orally or L-buthionine-[S,R]-sulfoximine (0.93±0.03 mmol/kg) intraperitoneally followed by liposomal busulphan (37±1.4 mg/kg) intraperitoneally. Animals were sacrificed at day 1, 3, 6, 9 or 12 after the last dose of treatment.
Liposomal busulphan was used in the in vivo study and prepared as described in example 1. Liposomal busulphan was prepared freshly before each experiment and stored in refrigerator until use.
as §2

[2] = test system: GSH intracellular content of CD34+ cells; assay: GSH assay in CD34+ cells after NAC or BSO; assay type: cell-based, human; settings: preincubation 16 to 18 hours, NAC 1 mM or BSO 50 μM
Method: as §1, with “After incubation, cells were washed and plated for clonogenic assay.” left out
(§3) Intracellular concentrations of GSH were determined using the enzymatic assay according to Tietze (Tietze, F. Enzymic method for quantitative determination of nanogram amounts of total and oxidized glutathione: applications to mammalian blood and other tissues. Anal Biochem, 27: 502-522., 1969). Total cellular protein was assessed according to Lowry after dissolving the precipitate in 1M NaOH (Lowry, O. H., Rosebrough, N. J., Farr, A. L., and Randall, R. J. Protein measurement with the folin phenol reagent. J Biol Chem, 193: 265-275., 1951)

[3] = test system: GSH intracellular level of P39 cells; assay: GSH assay in P39 cells after NAC or BSO; assay type: cell-based, human
Method: (§4) The P39 cell line was kindly provided by Prof Y. Yoshida, Center for South East Asian Studies, Kyoto University, Kyoto, Japan. Cells were cultured in RPMI-1640 medium supplemented with 10% heat inactivated fetal bovine serum (FBS), penicillin (25 IU/ml) and streptomycin (25 μg/ml) at 37° C. in a humidified 5% CO2 atmosphere. Exponentially growing cells were used in all experiments. Cells were incubated with N-acetyl-L-cysteine (1 mM) or L-buthionine-[S,R]-sulfoximine (50 μM) for 16 to 18 hours and then with busulphan in final concentrations of 10, 20 or 40 μg/ml for 4 hours. After incubation, cells were washed and re-cultured in busulphan-free medium for 72 hours.
as §3

myeloid P39 cell line = assay: Proliferation, clonogenicity and apoptosis in P39 cells; assay type: cell-based, human; settings: for effect on proliferation of busulphan treated P39 cells ([^3H]thymidine incorporation) / effect on the effect of busulphan on clonogenic capacity of P39 cells / effect on levels of apoptosis induced by busulphan in P39 cells: pretreatment; for effect on the effect of busulphan on clonogenic capacity of P39 cells: busulphan 10, 20 or 40 μg/ml 4 hours; for effect on levels of apoptosis induced by busulphan in P39 cells: data not shown
Method: as §4
Proliferation was assessed using the [^3H]thymidine incorporation assay. Clonogenic capacity was determined in 0.9% methylcellulose and apoptosis with morphology in May-Grünwald-Giemsa staining as described in (Hassan, Z., Hassan, M., and Hellstrom-Lindberg, E. The pharmacodynamic effect of busulfan in the P39 myeloid cell line in vitro. Leukemia, 15: 1240-1247, 2001).

[4] = NAC therapy during conditioning prior to allogeneic SCT: liver function, VOD, course of transplantation (Example 12)
Description: Ten patients, who underwent allogeneic stem cell transplantation (SCT) were included in the study. Six patients were transplanted with stem cells from matched unrelated donors, three with stem cells from HLA (Human Leukocyte Antigen) identical sibling donors and one with cord blood. The patients were included on the basis of high risk for hepatic toxicity. […] All patients had been tested negative for viral hepatitis B and C during pre-transplantation evaluation.
The initial busulphan dose given to these patients was 4 mg/kg/day. Busulphan was given twice daily. In cases of high busulphan serum concentrations the dose was reduced during conditioning as described below. […] Nine patients were given NAC during conditioning with busulphan. Treatment with NAC was given once daily as a three-hour infusion, 100 mg per kg body weight starting six hours after the previous busulphan dose and ending three hours before the following dose. The number of NAC doses given during and after busulphan treatment among the patients is described in Table 9. […] When restarted, NAC was administered not earlier than twelve hours after the end of cyclophosphamide infusion. The treatment was continued until elevated liver transaminases were normalized or, if normal transaminases at initiation of therapy, until conditioning was completed.
Tissue typing, conditioning, GVHD prophylaxis and infectious prophylaxis were performed as generally known to the skilled person. In short, the patients were treated in reversed isolation, immunosuppression consisted of four doses of methotrexate combined with cyclosporine and antithymocyte globuline, (Thymoglobulin, Sangstadt, Lyon, France), was given to recipients of unrelated stem cells.

[5] = Busulphan AUC before and after NAC in patients (Example 12); assay type: in vivo, human patients; settings: for AUC: plasma
Method: Busulphan was given twice daily.
Busulphan was determined using gas chromatography with electron capture detector. Internal standard (1,5-bis(methanesulphonyloxy) pentane) was added to 0.5 ml plasma. Busulphan and internal standard were converted to 1,4-diiodobutane and 1,5-diiodopentane, respectively.

[6] = Half-life of busulphan in RPMI-1640 medium (in vitro pharmacokinetics); assay type: physicochemical; settings: 37° C.
[7] = test system: Erythroid colonies from normal CD34+ hematopoietic progenitor cells; assay: Clonogenic assay of CD34+ cells, erythroid colonies (Example 11); assay type: cell-based, human; settings: bone marrow donors BM 1-5 and Mean
Method: as §1
CD34+ cells were treated with NAC, BSO, DMSO or busulphan alone or in combinations, washed and 2000 cells were plated in 1.1 ml of MethoCult™ GF H4434 in 35 mm Petri dishes in triplicates. Colonies were scored on day 14 using an inverted microscope. […] Cells were counted in Türk solution and nucleated cells (0.5×10^5) were plated in 1.1 ml of MethoCult™ GF M3534 in 35 mm Petri dishes in triplicates. […] CFU-GM, equal to or more than 50 cells, were counted on the day 7 using an inverted microscope.

[8] = 25° C.; cited from earlier work
[9] = test system: GSH in murine hepatocytes; settings: cited from earlier work
[10] = After NAC therapy, one line per patient
[11] = After conditioning, one line per patient

CCCCS(=N)(=O)CC[C@H](N)C(=O)O (stereo partly drawn) [BSO, L-buthionine-[S,R]-sulfoximine]
effect alone on colony formation of CFU-GM or erythroid colonies [1]: did not influence
effect on busulphan-induced inhibition of colony formation of CFU-GM or erythroid colonies [1]: Neither did preincubation of CD34+ cells with BSO change; also recorded: no additive effect
effect alone on CFU-GM formation compared to the control group (CFU-GM): Neither NAC nor BSO influenced
effect of combination on the myelosuppressive effect of busulphan (CFU-GM): did not change the level of myelosuppression
GSH intracellular content compared to CD34+ cells incubated in medium [2]: 50±9% and 50%
decrease of GSH compared to cells cultured in medium ([3]; BSO 50 μM 16 to 18 hours): 80%
decrease of clonogenic capacity of P39 cells (myeloid P39 cell line; alone, immediately at the end of incubation, full recovery after 24 hours): 50%
combined effect with busulphan on P39 cells (myeloid P39 cell line; busulphan 10 μg/ml, immediately after the end of incubation): Additive effect
effect on proliferation of busulphan treated P39 cells ([^3H]thymidine incorporation) (myeloid P39 cell line): did not influence the proliferation
effect on the effect of busulphan on clonogenic capacity of P39 cells (myeloid P39 cell line): neither NAC nor BSO influenced
effect on levels of apoptosis induced by busulphan in P39 cells (myeloid P39 cell line): did not change the levels of apoptosis

CC(=O)N[C@@H](CS)C(=O)O [NAC, N-acetyl-L-cysteine]
effect alone on colony formation of CFU-GM or erythroid colonies [1]: did not influence
effect on busulphan-induced inhibition of colony formation of CFU-GM or erythroid colonies [1]: did not affect
effect alone on CFU-GM formation compared to the control group (CFU-GM): Neither NAC nor BSO influenced
effect of combination on the myelosuppressive effect of busulphan (CFU-GM): did not significantly influence
GSH intracellular content compared to CD34+ cells incubated in medium [2]: 150±30%
increase of GSH intracellular level compared to cells cultured in medium ([3]; NAC 1 mM 16 to 18 hours): 10%
ALT [4, 10]: 0.77 ukat/L and 1.19 ukat/L and 0.61 ukat/L and 0.52 ukat/L
AST [4, 10]: 0.29 ukat/L and 0.33 ukat/L and 0.42 ukat/L and 0.49 ukat/L
Bilirubin [4, 10]: 9 µmol/L and 19 µmol/L and 7 µmol/L and 6 µmol/L
ALT [4, 11]: 4.11 ukat/L and 3.45 ukat/L and 0.78 ukat/L and 2.24 ukat/L
AST [4, 11]: 1.76 ukat/L and 1.50 ukat/L and 0.40 ukat/L and 0.82 ukat/L
Bilirubin [4, 11]: 4 µmol/L and 12 µmol/L and 11 µmol/L and 6 µmol/L
ALT ([4]; Before NAC therapy, one line per patient, normal range <0.8): 1.51 ukat/L and 2.25 ukat/L and 0.59 ukat/L and 8.10 ukat/L
AST ([4]; Before NAC therapy, one line per patient, normal range <0.80): 0.85 ukat/L and 0.96 ukat/L and 0.38 ukat/L and 11.2 ukat/L
Bilirubin ([4]; Before NAC therapy, one line per patient, normal range <26): 4 µmol/L and 5 µmol/L and 8 µmol/L and 3 µmol/L
Engraftment WBC day, ≧0.5 × 10^9/L ([4]; Day of SCT = day 0, one line per patient): 13 day (2×) and 12 day (3×) and 15 day and 24 day and 10 day and 14 day and 16 day
First day of WBC ≦0.5 × 10^9/L ([4]; Day of SCT = day 0, one line per patient, NAC during conditioning): 1 day and −1 day (2×) and −3 day and 0 day and 4 day and 5 day and 6 day and 2 day and −2 day
liver transferases after treatment in patients elevated at initiation ([4]; in vivo): less elevated test results after treatment
side effects related to the NAC infusions ([4]; in vivo): no side effects related to the NAC infusions were observed
Chimerism at 1 month post SCT ([4]; one line per patient): 100% donor
Patient outcome ([4]; one line per patient): Died day
Recurrence of the malignancy ([4]; one line per patient): No (9×) and 15 mo after
neutropenia ([4]; ten patients): Neutropenia developed in all patients
VOD or fatal liver toxicity ([4]; ten patients at high risk of VOD): None of the patients developed VOD or fatal liver toxicity
donor origin of hematopoietic cells (CD3+, Cd19+, CD45+) in peripheral blood ([4]; three months after SCT, five patients): 100%
effect on busulphan serum concentrations ([5]; human, in vivo): not affected
effect on proliferation of busulphan treated P39 cells ([^3H]thymidine incorporation) (myeloid P39 cell line): did not influence the proliferation
effect on the effect of busulphan on clonogenic capacity of P39 cells (myeloid P39 cell line): neither NAC nor BSO influenced
effect on levels of apoptosis induced by busulphan in P39 cells (myeloid P39 cell line): did not change the levels of apoptosis

CS(=O)(=O)OCCCCOS(C)(=O)=O [busulphan, 1,4-bis-(methanesulphonyloxy)butan]
half-life [6]: 16 h
k (C=C0.e^−kt) [6]: 0.043
I-AUC100 (AUC inhibiting colony formation by 100%) ([1]; CFU-GM, bone marrow donors BM 1-5 and Mean): 69.33 µg·h/mL and 56.01 µg·h/mL and 74.14 µg·h/mL and 69.46 µg·h/mL and 74.38 µg·h/mL
myelosuppression (CFU-GM colony-formation assay) (CFU-GM; liposomal busulphan 37±1.4 mg/kg ip once a day for 4 days): stable myelosuppression on days 3 through 12
I-AUC50 (AUC inhibiting colony formation by 50%) [7]: 31.54 µg·h/mL and 18.13 µg·h/mL and 24.68 µg·h/mL and 30.12 µg·h/mL and 26.96 µg·h/mL
I-AUC50 (AUC inhibiting colony formation by 50%) ([7]; mean): 26.29 µg·h/mL
water solubility [8]: less than 1 microgram/ml
Busulphan AUC corrected for 2 mg/kg ([5]; After NAC, one line per patient): 10385 ng·h/mL and 12350 ng·h/mL and 15230 ng·h/mL and 10043 ng·h/mL and 19445 ng·h/mL and 12828 ng·h/mL
AUC ([5]; human, 2 mg/kg, Busulphan AUC corrected for 2 mg/kg, After NAC, one line per patient): 14800 ng·h/mL
AUC ([5]; human, oral, 4 mg/kg/day, patients no 2, 4 and 8, in this order, before NAC, read-out: AUC after the first dose of busulphan): 20500 ng·h/mL
AUC ([5]; human, oral, patients no 2, 4 and 8, in this order, doses reduced by 35, 15 and 30%, read-out: mean values of the AUC's during doses 4-8): 11400 ng·h/mL
AUC after the first dose of busulphan ([5]; patients no 2, 4 and 8, in this order, before NAC): 15527 ng·h/mL and 16122 ng·h/mL
mean values of the AUC's during doses 4-8 ([5]; patients no 2, 4 and 8, in this order, doses reduced by 35, 15 and 30%): 10551 ng·h/mL and 12122 ng·h/mL
GSH depletion in murine hepatocytes ([9]; in vitro): 50%
GSH depletion in murine hepatocytes ([9]; in vivo): 60%
